Assay results: patent US7947280B2 (priority 2003, dated 2011)
Entries after “also recorded” stand apart in the source; their conditions may differ.

How the values were obtained:
[1] = test system: superoxide production in aortic tissue of apoE knockout mice; assay: Lucigenin-enhanced chemiluminescence of aortic superoxide; type: in vivo, mouse
Protocol: Lucigenin-enhanced chemiluminescence. Total aortic superoxide was measured by lucigenin-enhanced chemiluminescence as described previously. Aortas were harvested flushed with Krebs-HEPES buffer, opened longitudinally and divided into halves. Vessels were gassed with 95% oxygen/5% carbon dioxide in warmed Krebs-HEPES buffer for 30 minutes before measurements of chemiluminescence in a luminometer (manufacturer, location) using 20 μmol/L lucigenin. One half of each vessel was incubated in L-NAME (1 mmol/L). After measuring baseline readings for 4 minutes, samples were equilibrated and dark adapted for 5 mins, and chemiluminescence was recorded for 10 minutes. Recordings were performed blinded to the samples identity. Results were expressed as counts per second per milligram of tissue dry weight.

[2] = test system: superoxide production in aortic sections; assay: Dihydroethidium oxidative fluorescence microtopography; type: in vivo, mouse
Protocol: Oxidative fluorescent microtopography. Superoxide was detected in the layers of the vessel wall using fluorescent probe dihydroethidium as described previously. Fresh segments of upper descending thoracic aorta were frozen in OCT compound. […] Molecular Probes). Images were obtained on a confocal microscope (Bio-Rad MRC-1024 laser; filter settings: excitation filter 488 nm; emission filter 550 nm). 2-hydroxyethidium fluorescence was measured from high power (60× mag) images. Endothelium by quantifying fluorescence (intensity×area) on the luminal side of the internal elastic lamina, media between the internal and external elastic lamina, and adventitia outside the external elastic lamina. Quantification was performed using Image Pro Plus software (Media Cybernetics, Silver Springs, Md.). Medial Analysis was performed blind to the samples identity.

C57B/16 mice = assay: Magnetic resonance imaging after intraperitoneal apelin-12 injection; type: in vivo, mouse; details: post apelin-12 300 μg/kg intraperitoneal, one hour prior to scanning; n=9
Protocol: Magnetic resonance imaging. […] Platinum needle ECG leads were inserted subcutaneously. Respiration was monitored by means of a pneumatic pillow sensor positioned against the abdomen. Mouse body temperature was maintained during scanning at 37° C. by a flow of heated air thermostatically controlled by a rectal temperature probe. Magnetic resonance images were acquired on a 4.7T Oxford magnet controlled by a Varian Inova console (Varian, Palo Alto, Calif.) using a transmit-receive, quadrature, volume coil with an inner diameter of 3.5 cm. Image acquisition was gated to respiration and to the ECG R wave (SA Instruments, Stony Brook, N.Y.). Coronal and sagittal scout images led to the acquisition of multiple contiguous 1 mm thick, short axis slices orthogonal to the interventricular septum. […] Planimetry measurements of end diastolic and end systolic dimension were derived offline from short axis views of the left ventricle at the level of the papillary muscles using ImageJ software (National Institutes of Health, Bethesda, Md.). Ejection fraction was calculated as [[…]. Data Analysis. […] Exact p values are reported for all comparisons.

APJ [3] = molecular target: T1, APJ (Homo sapiens, UniProt P35414); details: cited from earlier work
T1 sequence (P35414 1-380): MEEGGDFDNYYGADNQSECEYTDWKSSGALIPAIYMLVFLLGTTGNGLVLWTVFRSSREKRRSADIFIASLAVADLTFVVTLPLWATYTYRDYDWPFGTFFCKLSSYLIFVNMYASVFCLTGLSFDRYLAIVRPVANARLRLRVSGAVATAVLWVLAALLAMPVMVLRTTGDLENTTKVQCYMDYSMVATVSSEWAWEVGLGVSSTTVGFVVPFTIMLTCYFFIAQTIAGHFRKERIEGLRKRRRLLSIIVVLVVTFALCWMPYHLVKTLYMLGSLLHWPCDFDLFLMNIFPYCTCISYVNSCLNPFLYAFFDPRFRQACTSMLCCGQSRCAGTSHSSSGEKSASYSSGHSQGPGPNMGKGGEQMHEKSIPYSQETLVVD

APJ [4] = molecular target: T1, APJ; details: cited from earlier work; remark: listed apart in the source
ApoE-KO mice [5] = assay: Vein graft neointimal hyperplasia model; type: in vivo, mouse; details: AngII infusion
Protocol: (§1) Animals. Mice were maintained in temperature-controlled (20° C. to 22° C.) environment with a 12-hour light-dark cycle. Sterile water and standard chow diet were available ad libitum. All mice were C57BL/6J ApoE-KO male mice (Jackson Laboratories, Bar Harbor, […].) between the ages of 8-12 weeks. […] Animal procedures were carried out in accordance with the Institutional Review Board Guidelines at Stanford University.

AT1R = molecular target: T2, AT1R (Rattus norvegicus, UniProt P25095); assay: Competitive ligand binding with FAM-labeled AngII in HEK-293 cells; details: unlabeled ligand 100 nM; HEK-293 cells transfected with AT1R
T2 construct: expressed in transfected cells; host or cells: HEK-293
T2 sequence (P25095 1-359): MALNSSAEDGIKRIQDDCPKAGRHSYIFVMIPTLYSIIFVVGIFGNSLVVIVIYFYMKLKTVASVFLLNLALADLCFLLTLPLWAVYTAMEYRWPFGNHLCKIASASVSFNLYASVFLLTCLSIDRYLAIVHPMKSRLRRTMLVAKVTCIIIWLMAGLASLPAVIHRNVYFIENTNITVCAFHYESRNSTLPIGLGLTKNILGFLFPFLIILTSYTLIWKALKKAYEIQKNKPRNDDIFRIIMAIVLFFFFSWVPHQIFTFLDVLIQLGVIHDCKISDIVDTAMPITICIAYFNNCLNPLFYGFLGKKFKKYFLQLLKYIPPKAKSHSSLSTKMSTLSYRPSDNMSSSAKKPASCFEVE

ApoE-KO mice [6] = assay: Atherosclerotic lesion analysis in ApoE-KO mice; type: in vivo, mouse
Protocol: Animals. Mice were maintained in temperature-controlled (20° C. to 22° C.) environment with a 12-hour light-dark cycle. […] All mice were C57BL/6J ApoE-KO male mice (Jackson Laboratories, Bar Harbor, […].) between the ages of 8-12 weeks. […] Animal procedures were carried out in accordance with the Institutional Review Board Guidelines at Stanford University.
Tissue preparation, histology and lesion quantification. Mice were euthanized 28 days following implantation of osmotic mini-pumps. The thoracic cage was removed and the animal perfused with phosphate buffered saline solution (PBS) for 2 minutes. The entire aorta and vein graft were exposed and the periadventitial tissue and scar tissue dissected and removed. Subsequently mice were perfusion fixed in situ with 4% phosphate-buffered paraformaldehyde. In some animals aorta and lung were removed fresh for biochemical assays.
Atherosclerotic Lesion Analysis Atherosclerosis lesion area was determined as described previously. Briefly, the arterial tree was perfused with PBS (pH 7.3) and then perfusion fixed with phosphate-buffered paraformaldehyde (3%, pH 7.3). The heart and full length of the aorta-to-iliac bifurcation was exposed and dissected carefully from any surrounding tissues. Aortas were then opened along the ventral midline and dissected free of the animal and pinned out flat, intimal side up, onto black wax. Aortic images were captured with a digital camera (DMC1) mounted on a Leica MZ6 stereomicroscope and analyzed using Fovea Pro (Reindeer Graphics, Asheville, N.C.). Percent lesion area was calculated as total lesion area divided by total surface area.

ApoE-KO mice [7] = assay: AngII induced abdominal aortic aneurysm formation model; type: in vivo, mouse
Protocol: as §1
Abdominal aortic aneurysm formation, sudden death and vein graft procedure. […] Abdominal aortic aneurysm was defined as ≧50% enlargement of the maximal abdominal aorta diameter. Mice that were found dead without any preceding signs of suffering were defined as sudden death.

[8] = test system: NFκB, NFAT, AP-1 and SRE reporter constructs; assay: Luciferase reporter assays of AngII nuclear signaling in HEK-293 cells; type: cell-based; details: HEK-293 cells co-transfected with AT1; AngII stimulation
Description: cDNA Constructs APJ expression construct was purchased from cDNA.org. AT1R construct was obtained from Dr. Marc Caron. AT1R transcript was inserted into a pEGFP-N1 vector (Clonetech). The NF-kB and SRE luciferase reporter constructs were obtained from BD Biosciences.
(§2) Cells were immediately lysed.

[9] = test system: AT1R and APJ heterodimerization; assay: AT1R-APJ receptor heterodimerization by immunoprecipitation; type: cell-based; details: AngII, 1 and 6 hours of treatment; co-transfected cells
Protocol: as §2
Immunoprecipitation and Western Blotting Immunoprecipitation was performed as previously described (REF). In brief, cells were lysed using 10× Cell Lysis Buffer (Cell Signaling Technologies CITY). Lysates were precleared with protein G and immunoprecipitation was performed with the respective antibodies at concentration of 1 mg/mL for 24 hrs at 4C. Protein G agarose was added and incubated for additional 2 hours. Western blotting on SDS-PAGE gels were performed as previously described, and the bands were visualized using the enhanced chemiluminescence system (Amersham Biosciences).

Molecule: COC(=O)[C@@H](N)CCCNC(=N)N[N+](=O)[O-] [L-NAME]
- increase in total superoxide production on incubation with L-NAME ([1]; aorta from apelin treated mice, L-NAME 1 mmol/L): 2 fold
- total superoxide levels on incubation with L-NAME ([1]; aorta from saline, AngII or AngII+apelin treated animals, L-NAME 1 mmol/L): not significantly different

Molecule: COc1cc(C(C)=O)ccc1O [apocynain]
- total medial fluorescence after incubation with NADPH oxidase inhibitor ([2]; aortic sections from apelin treated mice): did not find this effect
- total medial fluorescence after incubation with NADPH oxidase inhibitor ([2]; aortic sections from saline, AngII and apelin+AngII treated mice, 50 μmol/l): dramatically reduced; also recorded: blocked

Molecule: H-Arg-Pro-Arg-Leu-Ser-His-Lys-Gly-Pro-Met-Pro-Phe-OH [apelin-12]
- Ejection fraction (C57B/16 mice): upward trend
- heart rate (inverse of R-R interval of electrocardiogram) (C57B/16 mice): significant increase
- left ventricular end diastolic area (C57B/16 mice): significant reduction; also recorded: significantly decreased
- activation of APJ (APJ [3]): activate APJ

Molecule: H-Leu-Val-Gln-Pro-Arg-Gly-Ser-Arg-Asn-Gly-Pro-Gly-Pro-Trp-Gln-Gly-Gly-Arg Arg-Lys-Phe-Arg-Arg-Gln-Arg-Pro-Arg-Leu-Ser-His-Lys-Gly-Pro-Met-Pro-Phe-OH (H-LVQPRGSRNGPGPWQGGRRKFRRQRPRLSHKGPMPF-OH; listed as Homo sapiens) [apelin-36]
- activation of APJ (APJ [3]): activate APJ

Molecule: angiotensin II (DRVYIHPF) [AngII, peptide infused to promote vascular disease and heart failure; AT1R ligand, reference compound]
- increase in total chemiluminescence (superoxide) ([1]; AngII infusion): 10 fold
- binding to APJ (APJ [4]): does not bind
- increase of vein graft wall area vs saline treated controls (ApoE-KO mice [5]): 33%
- competition for binding of FAM-AngII (10 nM) to AT1R (AT1R): competes
- increase of descending aorta atherosclerosis vs saline treated controls (ApoE-KO mice [6]; AngII 1.4 mg/kg/day, 4 week minipump infusion): 82%
- progression of atherosclerosis in aortic root (FIG. 17) (ApoE-KO mice [6]; osmotic minipump during high fat diet exposure): do not alter
- animals with aneurysm formation (ApoE-KO mice [7]; AngII for four weeks): 11/12
- incidence of AAA formation within 4 weeks (ApoE-KO mice [7]; single agent infusion): 92%
- reporter transcription (NFκB, NFAT, AP-1, SRE) [8]: significant increase
- AT1R-APJ receptor heterodimerization [9]: significantly enhanced

Molecule: apelin-17
- activation of APJ (APJ [3]): activate APJ
